Source: patent US11813339B2, “Method of use for therapeutic bone agents” (IGL Pharma, Inc., priority 2017, dated 2023)
Where two headings read alike, the source gives them in different places.

Legend:
osteosarcoma = assay: Treatment of dogs with osteosarcoma with LSA Sm-153-DOTMP; assay type: in vivo
Description: Seven dogs with osteosarcoma were treated with the Sm-153-DOTMP made from LSA Sm-153 of Example 1 at 1 mCi/kg.

tumor = assay: Ascending dose trial in dogs (MTD); assay type: in vivo; details: for maximum tolerated dose: dogs
Text: The maximum tolerated dose is 1.75-2.0 mCi/kg; whereas for Sm-153-EDTMP the maximum tolerated dose was 1.0 mCi/kg. Stable or improved indices were experienced by 7 of 12 dogs.

[1] = Residual activity in bone cancer patients after repeated doses, NaI crystal detection; assay type: in vivo; details: 30 mCi doses, after receiving 7 doses (of 10); activity due to long-lived radionuclidic impurities
Text: The Sm-153 prepared as in Example A was used to prepare doses of Sm-153-EDTMP. These doses were used to treat patients suffering from bone cancer. Patients were repeatedly treated (10 times) with 30 mCi of Sm-153-EDTMP as prepared in this example. The first 5 doses were given at 3 month intervals, and the second five doses given at 6 month intervals. After the decay of Sm-153, a NaI crystal was used to detect the amount of residual activity in the patients. […] The activity was due to long-lived radionuclidic impurities created during the target irradiation process.

[2] = system: prostate and breast bone metastases; details: cited from earlier work; for long-lived impurities (Eu isotopes) in patients on multiple doses: high-resolution gamma spectroscopy whole body counters
[3] = about 550 patients, repeated 30 mCi doses

| Substance | myelosuppression relative to similar dogs treated with 1 mCi/kg of HSA Sm-153-EDTMP (osteosarcoma; evidenced from the nadir in platelets and neutrophils) | uptake in the tumor (osteosarcoma; seven dogs with osteosarcoma, 1 mCi/kg) | stable or improved indices (tumor; ascending dose trial) | uptake in tumor (tumor; ascending dose trial of 13 dogs starting at 1.5 mCi/kg) | maximum tolerated dose (tumor) | residual activity detected in patients after decay of Sm-153 [1] | lesion response [2, 3] | survival [2, 3] | long-lived impurities (Eu isotopes) in patients on multiple doses [2] | long-lived impurities (Eu isotopes) in patients on multiple doses ([2]; listed as HSA Sm-153-EDTMP) |
| --- | --- | --- | --- | --- | --- | --- | --- | --- | --- | --- |
| Sm-153 1,4,7,10-tetraazacyclododecanetetramethylenephosphonic acid [LSA Sm-153-DOTMP] | about one half | uptake in the tumor for all dogs | 7 of 12 | uptake in tumor for all seven dogs tested | 1.75-2.0 mCi/kg |  |  |  |  |  |
| Sm-153-ethylenediaminetetramethylenephosphonic acid [Sm-153-EDTMP] |  |  |  |  | 1.0 mCi/kg | significant amounts of activity detected in patients, which increased with each dose given thereafter | lesion regression | improved survival | increases with every treatment | apparent |
